pIC50: −log10 of the molar value. One block for each compound: values may come before it.
Key:
[1] = Half life in human patient at 200 to 800 mg, iv; type: ADME, organism-based; conditions: in vivo
[2] = target: T1, Poly [ADP-ribose] polymerase 1 (Homo sapiens, UniProt P09874)
[3] = test system: LoVo; test: Potentiation of TMZ-induced antiproliferation against human LoVo cells at 0.4 uM; type: functional
[4] = test system: Rattus norvegicus; test: Neuroprotective effect in rat transient MCAO model assessed as reduction in infarct volume at 40 mg/kg, iv administered prior to reperfusion; parameters: scale not given: the % may be the effect or the level left
[5] = test system: Rattus norvegicus; test: Cardioprotective effect in rat cardiac ischemia model assessed as reduction in infarct size at 80 mg/kg, iv administered prior to reperfusion; type: functional, Heart; parameters: scale not given: the % may be the effect or the level left
[6] = Half life in human patient at 2.8 mg/kg, iv; type: ADME, organism-based; parameters: dose 2.8 mg/kg, route intravenous; conditions: in vivo
[7] = target: Poly [ADP-ribose] polymerase 2 (Homo sapiens, UniProt Q9UGN5); test: Inhibition of PARP2
[8] = Half life in iv dosed human patient; type: ADME, organism-based; conditions: in vivo
[9] = Biodistribution in human patient urine; type: ADME, organism-based; conditions: in vivo
[10] = test system: Homo sapiens; test: Toxicity in iv infused human patients assessed as maximum tolerated dose; type: organism-based; conditions: in vivo
[11] = Ratio of drug level in brain to plasma in rat; type: ADME
[12] = test system: L1210; test: Cytotoxicity against mouse L1210 cells; type: functional
[13] = test system: Rattus norvegicus; test: Cardioprotective effect in rat ischemia/reperfusion-induced myocardial infarction model assessed as reduction in infarct size at 3 mg/kg/hr, iv administered prior to reperfusion; type: functional, Myocardium; parameters: scale not given: the % may be the effect or the level left
[14] = test system: Rattus norvegicus; test: Cardioprotective effect in rat ischemia/reperfusion-induced myocardial infarction model assessed as reduction in infarct size at 3 mg/kg/hr, iv administered prior to reperfusion measured after 2 hrs; type: functional, Myocardium; parameters: scale not given: the % may be the effect or the level left
[15] = in vivo; conditions: rat, brain/plasma, 10 mg/kg
Description: Ratio of drug level in brain to plasma in rat at 10 mg/kg/hr after 6 hrs

[16] = test system: Rattus norvegicus; test: Cardioprotective effect in rat ischemia/reperfusion-induced myocardial infarction model assessed as reduction in infarct size at 3 mg/kg/hr, iv administered prior to reperfusion measured after 4 hrs; type: functional, Myocardium; parameters: scale not given: the % may be the effect or the level left
[17] = target: T1, Poly [ADP-ribose] polymerase 1; test: Inhibition of PARP1 at 9.2 uM; parameters: scale not given: the % may be the effect or the level left
[18] = test system: Rattus norvegicus; test: Neuroprotective effect in rat transient MCAO model assessed as reduction in infarct volume at 10 mg/kg/hr, iv administered prior to reperfusion; parameters: scale not given: the % may be the effect or the level left
[19] = test system: Rattus norvegicus; test: Cardioprotective effect in rat ischemia/reperfusion-induced myocardial infarction model assessed as reduction in infarct size at 20 mg/kg, iv administered 10 mins prior to reperfusion; parameters: scale not given: the % may be the effect or the level left
[20] = Selectivity for […]
[21] = test system: Liver microsomes; test: Intrinsic clearance in human liver microsome; type: ADME

T1 sequence (P09874 whole entry): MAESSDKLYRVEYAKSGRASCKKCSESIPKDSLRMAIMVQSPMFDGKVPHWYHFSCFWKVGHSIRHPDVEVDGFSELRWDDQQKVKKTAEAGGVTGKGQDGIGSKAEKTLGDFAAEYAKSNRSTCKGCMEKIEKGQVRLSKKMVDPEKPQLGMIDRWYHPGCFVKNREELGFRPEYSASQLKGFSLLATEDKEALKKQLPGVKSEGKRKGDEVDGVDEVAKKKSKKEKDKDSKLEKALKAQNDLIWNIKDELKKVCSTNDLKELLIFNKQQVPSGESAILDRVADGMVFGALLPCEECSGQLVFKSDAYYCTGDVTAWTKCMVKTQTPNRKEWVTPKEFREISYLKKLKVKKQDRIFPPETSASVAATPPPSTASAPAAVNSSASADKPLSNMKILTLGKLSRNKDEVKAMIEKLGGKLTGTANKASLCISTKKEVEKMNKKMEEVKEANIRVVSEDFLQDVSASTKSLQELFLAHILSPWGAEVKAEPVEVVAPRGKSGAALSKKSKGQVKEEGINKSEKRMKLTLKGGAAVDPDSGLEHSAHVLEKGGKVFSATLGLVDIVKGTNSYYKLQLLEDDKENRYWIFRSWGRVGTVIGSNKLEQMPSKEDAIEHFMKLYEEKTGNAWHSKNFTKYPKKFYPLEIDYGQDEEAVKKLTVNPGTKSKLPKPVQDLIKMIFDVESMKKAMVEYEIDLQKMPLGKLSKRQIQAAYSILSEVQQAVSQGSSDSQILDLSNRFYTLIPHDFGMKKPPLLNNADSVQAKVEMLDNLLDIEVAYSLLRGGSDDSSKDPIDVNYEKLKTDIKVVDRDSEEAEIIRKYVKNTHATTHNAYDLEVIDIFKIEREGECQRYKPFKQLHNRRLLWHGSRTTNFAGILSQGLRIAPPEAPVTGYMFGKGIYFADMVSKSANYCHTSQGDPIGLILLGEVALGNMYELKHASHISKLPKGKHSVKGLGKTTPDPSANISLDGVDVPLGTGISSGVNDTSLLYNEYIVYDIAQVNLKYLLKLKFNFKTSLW
Poly [ADP-ribose] polymerase 2, sequence (Q9UGN5 whole entry): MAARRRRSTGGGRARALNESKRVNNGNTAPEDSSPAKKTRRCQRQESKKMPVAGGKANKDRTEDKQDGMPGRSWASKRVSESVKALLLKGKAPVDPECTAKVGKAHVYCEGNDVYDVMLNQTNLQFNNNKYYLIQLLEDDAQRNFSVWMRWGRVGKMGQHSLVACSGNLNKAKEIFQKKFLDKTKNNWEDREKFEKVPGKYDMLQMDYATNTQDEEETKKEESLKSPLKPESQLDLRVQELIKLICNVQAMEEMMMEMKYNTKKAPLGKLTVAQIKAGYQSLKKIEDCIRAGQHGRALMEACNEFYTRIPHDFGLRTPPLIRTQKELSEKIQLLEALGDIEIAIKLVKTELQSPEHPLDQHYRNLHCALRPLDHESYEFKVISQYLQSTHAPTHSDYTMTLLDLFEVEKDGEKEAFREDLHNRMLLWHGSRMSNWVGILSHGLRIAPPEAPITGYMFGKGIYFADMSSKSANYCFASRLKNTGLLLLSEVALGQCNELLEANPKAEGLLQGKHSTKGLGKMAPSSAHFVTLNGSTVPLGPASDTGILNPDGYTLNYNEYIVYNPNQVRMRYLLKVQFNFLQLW

half-life [1]: 7.5 h
Structure (SMILES): OC[C@H]1O[C@@H](n2cnc3c(O)ncnc32)[C@H](O)[C@@H]1O [INOSINE]

Structure (SMILES): O=c1[nH]cnc2ccccc12 [QUINAZOLINONE]
pIC50 [2]: 4.80

Structure (SMILES): CN(C)Cc1ccc(-c2nc3cccc4c3n2CCNC4=O)cc1
PF50 [3]: 5.5

Structure (SMILES): CN1CCN(c2ccc3nc(O)c4ccccc4c3n2)CC1
Activity [4]: 44%
Activity [5]: 25%

half-life [6]: 4 min
Structure (SMILES): NC(=O)c1ccc(I)c([N+](=O)[O-])c1 [INIPARIB]

Structure (SMILES): O=c1[nH]c(CCCN2CC=C(c3ccc(F)cc3)CC2)nc2c(Cl)cccc12
pIC50 [7]: 6.30

Structure (SMILES): O=C1NCCc2c(-c3ccc(CN4CCCC4)cc3)[nH]c3cccc1c23
PF50 [3]: 7.8

Structure (SMILES): CNCc1ccc(-c2[nH]c3cc(F)cc4c3c2CCNC4=O)cc1 [RUCAPARIB]
half-life [8]: 9.5 h
Drug uptake [9]: 11%
MTD [10]: 200 mg/m2

pIC50 [2]: 6.57
Structure (SMILES): O=c1[nH]ccc2c(Br)cccc12

Kp [11]: 0.82
Structure (SMILES): Cc1nc2cccc(Cl)c2c(=O)[nH]1

Structure (SMILES): CN(C)Cc1ccc(-c2cc3cccc4c3n2CCNC4=O)cc1
PF50 [3]: 3.8

Structure (SMILES): Cc1nc2c(O)cccc2c(=O)[nH]1
Activity [12]: 90%

Structure (SMILES): CN(C)Cc1ccc(-c2c[nH]c(=O)c3cccc(O)c23)cc1
Activity [13]: 57%
Activity [14]: 50%
Kp at 6 h [15]: 0.8
Activity [16]: 47%

Activity [17]: 88%
pIC50 [2]: 6.00
Structure (SMILES): NC(=O)c1cccc(C2CO2)c1 (centres undefined)

Structure (SMILES): Nc1ncnc2c1ncn2[C@@H]1O[C@H](C(=O)N2CCN(CC(=O)Nc3cccc4c3CNC4=O)CC2)[C@@H](O)[C@H]1O
Activity [18]: 57%
Activity [19]: 35%

Selectivity ratio [20]: 10
pIC50 [7]: 8.10
Structure (SMILES): N#Cc1ccc(-c2cnc3cccc(C(N)=O)c3n2)cc1

CL [21]: < 1 mL/min/g
Structure (SMILES): O=C1CCC(=O)N1c1cc(Cc2n[nH]c(=O)c3ccccc23)ccc1F

pIC50 [2]: 6.05
Structure (SMILES): O=c1[nH]cc(-c2ccccc2)c2ccccc12

Structure (SMILES): CCc1cc2cc(C(CCN3CCCCC3)Cc3ccc4c(c3)OCCO4)ccc2[nH]c1=O (centres undefined)
pIC50 [2]: 8.04

pIC50 [2]: 6.62
Structure (SMILES): NC(=O)c1cccc2[nH]cnc12
